This note sets out measurements from patent US20090270413A1, “DI-T-BUTYLPHENYL PIPERAZINES AS CALCIUM CHANNEL BLOCKERS” (priority 2008, published 2009).

The target in this assay is T1, Human Cav2.2 channels (Homo sapiens, UniProt Q00975).
T1 construct: expressed in transfected cells
The assay is described as follows: Block of Cav2.2 (N-type) channels expressed in HEK293 cells. The format is cell-based. The settings on record: HEK293; for inhibition at 10 µM: read-out: Cav 2.2 % Inh @ 10 μM; for inhibition at 30 µM: read-out: Cav 2.2 % Inh @ 30 μM. An excerpt: Human Cav2.2 channels were stably expressed in HEK293 cells along with alpha2-delta and beta subunits of voltage-gated calcium channels. An inwardly rectifying potassium channel (Kir2.3) was also expressed in these cells to allow more precise control of the cell membrane potential by extracellular potassium concentration. At low bath potassium concentration, the membrane potential is relatively negative, and is depolarized as the bath potassium concentration is raised. In this way, the bath potassium concentration can be used to regulate the voltage-dependent conformations of the channels. Compounds are incubated with cells in the presence of low (4 mM) potassium or elevated (12, 25 or 30 mM) potassium to determine the affinity for compound block of resting (closed) channels at 4 mM potassium or affinity for block of open and inactivated channels at 12, 25 or 30 mM potassium. After the incubation period, Cav2.2 channel opening is triggered by addition of higher concentration of potassium (70 mM final concentration) to further depolarize the cell. The degree of state-dependent block can be estimated from the inhibitory potency of compounds after incubation in different potassium concentrations.
Calcium influx through Cav2.2 channels is determined using a calcium sensitive fluorescent dye in combination with a fluorescent plate reader. Fluorescent changes were measured with either a VIPR (Aurora Instruments) or FLIPR (Molecular Devices) plate reader.
Protocol • 1. Seed cells in Poly-D-Lysine Coated 96 or 384-well plate and keep in a 37° C.-10% CO2 incubator overnight • 2. Remove media, wash cells with 0.2 mL (96-well plate) or 0.05 mL (384-well plate) Dulbecco's Phosphate Buffered Saline (D-PBS) with calcium & magnesium (Invitrogen; 14040) • 3. Add 0.1 mL (96-well plate) or 0.05 mL (384-well plate) of 4 μM fluor-4 (Molecular Probes; F-14202) and 0.02% Pluronic acid (Molecular Probes; P-3000) prepared in D-PBS with calcium & magnesium (Invitrogen; 14040) supplemented with 10 mM Glucose & 10 mM Hepes/NaOH; pH 7.4 • 4. Incubate in the dark at 25° C. for 60-70 min • 5. Remove dye, wash cells with 0.1 mL (96-well plate) or 0.06 mL (384-well plate) of 4, 12, 25, or 30 mM Potassium Pre-polarization Buffer (PPB) • 6. Add 0.1 mL (96-well plate) or 0.03 mL (384-well plate) of 4, 12, 25, 30 mM PPB with or without test compound • 7. Incubate in the dark at 25° C. for 30 min • 8. Read cell plate on VIPR instrument, Excitation=480 nm, Emission=535 nm • 9. With VIPR continuously reading, add 0.1 mL (96-well plate) or 0.03 mL (384-well plate) of Depolarization Buffer (DB), which is 2× the final assay concentration, to the cell plate.
Block of N-type calcium channels is evaluated utilizing the IonWorks HT 384 well automated patch clamp electrophysiology device. This instrument allows synchronous recording from 384 well (48 at a time). A single whole cell recording is made in each well. Whole cell recording is established by perfusion of the internal compartment with amphotericin B.
The voltage protocol is designed to detect use-dependent block. A 2 Hz train of depolarizations (twenty 25 ms steps to +20 mV). The experimental sequence consists of a control train (pre-compound), incubation of cells with compound for 5 minutes, followed by a second train (post-compound). Use dependent block by compounds is estimated by comparing fractional block of the first pulse in the train to block of the 20th pulse.
Parallel patch clamp electrophysiology is performed using IonWorks HT (Molecular Devices Corp) essentially as described by Kiss and colleagues (Kiss et al. 2003; Assay and Drug Development Technologies, 1:127-135). Briefly, a stable HEK 293 cell line (referred to as CBK) expressing the N-type calcium channel subunits (α1B, α2δ, β3a) and an inwardly rectifying potassium channel (Kir2.3) is used to record barium current through the N-type calcium channel. Cells are grown in T75 culture plates to 60-90% confluence before use. […]

T1 sequence (Q00975 whole entry): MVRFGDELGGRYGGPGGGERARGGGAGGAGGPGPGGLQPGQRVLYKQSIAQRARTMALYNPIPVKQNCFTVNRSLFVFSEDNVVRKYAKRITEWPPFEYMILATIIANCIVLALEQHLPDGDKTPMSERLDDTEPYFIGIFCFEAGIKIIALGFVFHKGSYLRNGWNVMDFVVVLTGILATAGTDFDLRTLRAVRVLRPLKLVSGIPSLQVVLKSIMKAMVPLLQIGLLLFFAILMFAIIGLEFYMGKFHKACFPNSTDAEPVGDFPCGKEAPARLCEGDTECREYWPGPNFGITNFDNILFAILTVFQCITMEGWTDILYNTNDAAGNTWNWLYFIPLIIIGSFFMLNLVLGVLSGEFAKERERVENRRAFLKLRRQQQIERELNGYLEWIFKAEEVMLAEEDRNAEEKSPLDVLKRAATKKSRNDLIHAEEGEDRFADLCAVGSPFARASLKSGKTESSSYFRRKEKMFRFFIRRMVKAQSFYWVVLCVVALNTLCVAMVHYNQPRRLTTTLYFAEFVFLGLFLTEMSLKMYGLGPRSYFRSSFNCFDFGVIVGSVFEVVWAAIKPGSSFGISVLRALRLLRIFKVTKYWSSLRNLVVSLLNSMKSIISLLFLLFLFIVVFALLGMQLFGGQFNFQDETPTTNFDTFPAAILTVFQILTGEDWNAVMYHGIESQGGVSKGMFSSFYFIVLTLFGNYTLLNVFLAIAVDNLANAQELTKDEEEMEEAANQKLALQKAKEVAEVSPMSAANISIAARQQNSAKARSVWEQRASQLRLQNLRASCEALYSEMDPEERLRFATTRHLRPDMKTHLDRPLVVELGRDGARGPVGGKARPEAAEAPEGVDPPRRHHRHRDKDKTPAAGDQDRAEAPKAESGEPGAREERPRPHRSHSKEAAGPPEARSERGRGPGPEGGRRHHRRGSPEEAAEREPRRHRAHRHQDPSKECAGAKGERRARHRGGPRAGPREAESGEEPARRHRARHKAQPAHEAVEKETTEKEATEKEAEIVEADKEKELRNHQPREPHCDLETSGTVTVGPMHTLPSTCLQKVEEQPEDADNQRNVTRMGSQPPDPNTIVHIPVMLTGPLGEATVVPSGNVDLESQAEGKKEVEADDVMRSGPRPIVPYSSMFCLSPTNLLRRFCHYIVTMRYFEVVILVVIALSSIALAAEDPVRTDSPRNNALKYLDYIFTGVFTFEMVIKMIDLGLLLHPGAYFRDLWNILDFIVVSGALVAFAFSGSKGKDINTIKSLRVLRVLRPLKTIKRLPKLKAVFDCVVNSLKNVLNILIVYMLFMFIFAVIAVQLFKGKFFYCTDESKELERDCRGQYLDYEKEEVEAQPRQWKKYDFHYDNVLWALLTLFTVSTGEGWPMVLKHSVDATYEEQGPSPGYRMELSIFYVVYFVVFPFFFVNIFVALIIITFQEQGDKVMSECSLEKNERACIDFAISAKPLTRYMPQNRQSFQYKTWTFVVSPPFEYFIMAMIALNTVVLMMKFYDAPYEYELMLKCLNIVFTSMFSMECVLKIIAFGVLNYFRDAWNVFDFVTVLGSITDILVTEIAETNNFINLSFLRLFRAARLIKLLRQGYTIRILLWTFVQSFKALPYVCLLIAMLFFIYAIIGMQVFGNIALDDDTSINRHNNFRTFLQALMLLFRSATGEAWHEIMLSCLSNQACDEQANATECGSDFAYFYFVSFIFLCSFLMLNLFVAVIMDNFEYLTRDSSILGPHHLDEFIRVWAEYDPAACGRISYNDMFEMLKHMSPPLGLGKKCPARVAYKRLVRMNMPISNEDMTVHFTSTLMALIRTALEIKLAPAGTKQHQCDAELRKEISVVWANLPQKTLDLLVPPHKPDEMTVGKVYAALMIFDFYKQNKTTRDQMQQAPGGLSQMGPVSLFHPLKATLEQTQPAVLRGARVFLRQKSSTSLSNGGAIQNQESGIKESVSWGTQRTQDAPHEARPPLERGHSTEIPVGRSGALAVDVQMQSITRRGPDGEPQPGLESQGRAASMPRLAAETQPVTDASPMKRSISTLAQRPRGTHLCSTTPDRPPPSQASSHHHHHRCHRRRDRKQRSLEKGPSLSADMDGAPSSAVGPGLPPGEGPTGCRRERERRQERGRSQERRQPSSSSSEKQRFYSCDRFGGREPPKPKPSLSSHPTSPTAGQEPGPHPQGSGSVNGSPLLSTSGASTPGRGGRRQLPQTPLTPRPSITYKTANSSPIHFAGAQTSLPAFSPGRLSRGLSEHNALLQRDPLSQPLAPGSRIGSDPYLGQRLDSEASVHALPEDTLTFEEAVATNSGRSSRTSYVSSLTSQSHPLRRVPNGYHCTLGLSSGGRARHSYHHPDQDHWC
T1 sequence (P54289 25-956 partner limits assumed): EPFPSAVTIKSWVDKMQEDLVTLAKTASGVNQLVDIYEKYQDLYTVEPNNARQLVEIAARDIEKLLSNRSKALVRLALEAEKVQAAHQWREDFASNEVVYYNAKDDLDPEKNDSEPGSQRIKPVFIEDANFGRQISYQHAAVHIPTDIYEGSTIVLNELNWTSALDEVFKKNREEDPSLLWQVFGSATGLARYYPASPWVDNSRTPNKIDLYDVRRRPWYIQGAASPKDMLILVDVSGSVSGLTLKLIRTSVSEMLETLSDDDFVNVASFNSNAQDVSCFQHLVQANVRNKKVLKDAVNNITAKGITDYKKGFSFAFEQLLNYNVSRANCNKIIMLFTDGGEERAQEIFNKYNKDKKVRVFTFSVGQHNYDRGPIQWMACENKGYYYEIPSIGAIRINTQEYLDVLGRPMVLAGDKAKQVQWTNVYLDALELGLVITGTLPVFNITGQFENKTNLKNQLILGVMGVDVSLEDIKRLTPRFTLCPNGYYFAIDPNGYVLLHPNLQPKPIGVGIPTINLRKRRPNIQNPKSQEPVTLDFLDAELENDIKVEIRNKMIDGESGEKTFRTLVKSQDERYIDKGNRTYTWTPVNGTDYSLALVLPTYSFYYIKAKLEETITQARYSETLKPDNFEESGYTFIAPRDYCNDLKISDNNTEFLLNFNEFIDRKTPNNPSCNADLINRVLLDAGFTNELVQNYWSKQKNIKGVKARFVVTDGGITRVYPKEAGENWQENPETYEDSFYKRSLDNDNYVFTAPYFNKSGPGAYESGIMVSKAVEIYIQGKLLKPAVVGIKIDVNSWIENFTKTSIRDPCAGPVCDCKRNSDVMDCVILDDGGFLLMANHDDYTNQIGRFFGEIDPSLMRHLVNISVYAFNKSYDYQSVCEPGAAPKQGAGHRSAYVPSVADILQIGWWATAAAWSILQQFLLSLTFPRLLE
T1 sequence (P54289 957-1103 partner limits assumed): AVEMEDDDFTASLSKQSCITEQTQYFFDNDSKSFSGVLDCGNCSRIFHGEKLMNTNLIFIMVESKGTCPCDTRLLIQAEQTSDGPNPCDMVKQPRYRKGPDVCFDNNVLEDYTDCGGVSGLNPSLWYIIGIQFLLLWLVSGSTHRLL
T1 sequence (P54284 whole entry partner): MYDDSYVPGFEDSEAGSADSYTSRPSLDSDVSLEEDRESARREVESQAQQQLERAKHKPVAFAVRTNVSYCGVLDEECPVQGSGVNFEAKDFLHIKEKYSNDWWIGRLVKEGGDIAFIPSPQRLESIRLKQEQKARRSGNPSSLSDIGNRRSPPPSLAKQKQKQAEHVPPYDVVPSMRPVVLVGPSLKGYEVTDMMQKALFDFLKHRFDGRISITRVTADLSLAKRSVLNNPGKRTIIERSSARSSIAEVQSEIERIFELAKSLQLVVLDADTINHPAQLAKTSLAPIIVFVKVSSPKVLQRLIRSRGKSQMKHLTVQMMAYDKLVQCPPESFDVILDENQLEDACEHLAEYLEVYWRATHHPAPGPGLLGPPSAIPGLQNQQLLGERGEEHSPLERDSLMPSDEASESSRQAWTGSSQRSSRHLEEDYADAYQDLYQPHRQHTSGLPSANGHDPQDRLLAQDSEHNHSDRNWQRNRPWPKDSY

As to `Cc1cc(C(=O)N2CCN(c3cc(C(C)(C)C)cc(C(C)(C)C)c3)CC2)c(C(F)(F)F)o1` [Compound 1, (4-(3,5-di-tert-butylphenyl)piperazin-1-yl)(5-methyl-2-(trifluoromethyl)furan-3-yl)methanone], the inhibition at 10 µM was determined as 91% and the inhibition at 30 µM worked out at 101%.
For `CC(C)(C)c1cc(N2CCN(C(=O)c3ccncc3)CC2)cc(C(C)(C)C)c1` [Compound 2, (4-(3,5-di-tert-butylphenyl)piperazin-1-yl)(pyridin-4-yl)methanone], in that order: 90% and 94%.
The like results for `CC(C)(C)c1cc(N2CCN(C(=O)c3ccc(S(C)(=O)=O)cc3Cl)CC2)cc(C(C)(C)C)c1` [Compound 5, (2-chloro-4-(methylsulfonyl)phenyl)(4-(3,5-di-tert-butylphenyl)piperazin-1-yl)methanone] were, in that order, 85% and 96%.
The like results for `CC(C)(C)c1cc(N2CCN(C(=O)c3scc(S(C)(=O)=O)c3Cl)CC2)cc(C(C)(C)C)c1` [Compound 6, (3-chloro-4-(methylsulfonyl)thiophen-2-yl)(4-(3,5-di-tert-butylphenyl)piperazin-1-yl)methanone] were, in that order, 86% and 95%.
On to `COc1ccc(Cl)cc1C(=O)N1CCN(c2cc(C(C)(C)C)cc(C(C)(C)C)c2)CC1` [Compound 9, (5-chloro-2-methoxyphenyl)(4-(3,5-di-tert-butylphenyl)piperazin-1-yl)methanone], for which the inhibition at 10 µM was found to be 91% and the inhibition at 30 µM was 101%.
The like results for `Cn1nc(C(C)(C)C)cc1C(=O)N1CCN(c2cc(C(C)(C)C)cc(C(C)(C)C)c2)CC1` [Compound 11, (3-tert-butyl-1-methyl-1H-pyrazol-5-yl)(4-(3,5-di-tert-butylphenyl)piperazin-1-yl)methanone] were, in that order, 91% and 97%.
For `CC(C)(C)c1cc(N2CCN(C(=O)c3cc(F)cc(C(F)(F)F)c3)CC2)cc(C(C)(C)C)c1` [Compound 12, (4-(3,5-di-tert-butylphenyl)piperazin-1-yl)(3-fluoro-5-(trifluoromethyl)phenyl)methanone], in that order: 84% and 98%.
The like results for `Cc1ccc(C(=O)N2CCN(c3cc(C(C)(C)C)cc(C(C)(C)C)c3)CC2)c(C)c1` [Compound 15, (4-(3,5-di-tert-butylphenyl)piperazin-1-yl)(2,4-dimethylphenyl)methanone] were, in that order, 96% and 93%.
As for `CC(C)c1ccc(C(=O)N2CCN(c3cc(C(C)(C)C)cc(C(C)(C)C)c3)CC2)cc1` [Compound 17, (4-(3,5-di-tert-butylphenyl)piperazin-1-yl)(4-isopropylphenyl)methanone], the inhibition at 10 µM is 80% and the inhibition at 30 µM came out at 97%.
With `CC(C)(C)c1cc(N2CCN(C(=O)c3csc(-c4cccc(C(F)(F)F)c4)n3)CC2)cc(C(C)(C)C)c1` [Compound 18, (4-(3,5-di-tert-butylphenyl)piperazin-1-yl)(2-(3-(trifluoromethyl)phenyl)thiazol-4-yl)methanone], the inhibition at 10 µM turned out to be 59% and the inhibition at 30 µM came out at 83%.
The like results for `CC(C)(C)c1cc(N2CCN(C(=O)c3cc4cccnc4nc3C(F)(F)F)CC2)cc(C(C)(C)C)c1` [Compound 19] were, in that order, 49% and 69%.
For `CC(C)(C)c1cc(N2CCN(C(=O)c3ccc(S(=O)(=O)C(C)(C)C)s3)CC2)cc(C(C)(C)C)c1` [Compound 21, (5-(tert-butylsulfonyl)thiophen-2-yl)(4-(3,5-di-tert-butylphenyl)piperazin-1-yl)methanone], in that order: 53% and 78%.
For `CC(C)c1cc(C(=O)N2CCN(c3cc(C(C)(C)C)cc(C(C)(C)C)c3)CC2)on1` [Compound 24, (4-(3,5-di-tert-butylphenyl)piperazin-1-yl)(3-isopropylisoxazol-5-yl)methanone], in that order: 88% and 96%.
`CC(C)(C)c1cc(N2CCN(C(=O)c3cc(S(C)(=O)=O)ccc3Cl)CC2)cc(C(C)(C)C)c1` [Compound 25, (2-chloro-5-(methylsulfonyl)phenyl)(4-(3,5-di-tert-butylphenyl)piperazin-1-yl)methanone]: the inhibition at 10 µM was 89% and the inhibition at 30 µM was 99%.
For `Cc1ccc(S(C)(=O)=O)cc1C(=O)N1CCN(c2cc(C(C)(C)C)cc(C(C)(C)C)c2)CC1` [Compound 26, (4-(3,5-di-tert-butylphenyl)piperazin-1-yl)(2-methyl-5-(methylsulfonyl)phenyl)methanone], in that order: 87% and 98%.
On to `CC(C)c1cc(C(=O)N2CCN(c3cc(C(C)(C)C)cc(C(C)(C)C)c3)CC2)c2cnn(C(C)C)c2n1` [Compound 27, (4-(3,5-di-tert-butylphenyl)piperazin-1-yl)(1,6-diisopropyl-1H-pyrazolo[3,4-b]pyridin-4-yl)methanone], for which the inhibition at 10 µM is 59% and the inhibition at 30 µM is 83%.
As for `CC(C)(C)c1cc(N2CCN(C(=O)c3ccc(C(C)(C)C)s3)CC2)cc(C(C)(C)C)c1` [Compound 34, (5-tert-butylthiophen-2-yl)(4-(3,5-di-tert-butylphenyl)piperazin-1-yl)methanone], the inhibition at 10 µM worked out at 52% and the inhibition at 30 µM was determined as 59%.
For `Cc1oc(C(C)(C)C)cc1C(=O)N1CCN(c2cc(C(C)(C)C)cc(C(C)(C)C)c2)CC1` [Compound 35, (5-tert-butyl-2-methylfuran-3-yl)(4-(3,5-di-tert-butylphenyl)piperazin-1-yl)methanone], in that order: 77% and 95%.
The like results for `CC(C)(C)c1cc(N2CCN(C(=O)c3ccc(C(O)(C(F)(F)F)C(F)(F)F)cc3)CC2)cc(C(C)(C)C)c1` [Compound 36, (4-(3,5-di-tert-butylphenyl)piperazin-1-yl)(4-(1,1,1,3,3,3-hexafluoro-2-hydroxypropan-2-yl)phenyl)methanone] were, in that order, 32% and 73%.
The like results for `CC(C)(C)c1cc(N2CCN(C(=O)c3cc4cc(C(F)(F)F)ccc4s3)CC2)cc(C(C)(C)C)c1` [Compound 39, (4-(3,5-di-tert-butylphenyl)piperazin-1-yl)(5-(trifluoromethyl)benzo[b]thiophen-2-yl)methanone] were, in that order, 15% and 41%.
Take `CC(C)(C)c1cc(N2CCN(C(=O)c3cc(C4CC4)nc4ccccc34)CC2)cc(C(C)(C)C)c1` [Compound 40, (2-cyclopropylquinolin-4-yl)(4-(3,5-di-tert-butylphenyl)piperazin-1-yl)methanone]: the inhibition at 10 µM was found to be 86% and the inhibition at 30 µM came to 91%.
In the case of `CC(C)(C)c1cc(N2CCN(C(=O)c3cc(C4CC4)n[nH]3)CC2)cc(C(C)(C)C)c1` [Compound 42, (3-cyclopropyl-1H-pyrazol-5-yl)(4-(3,5-di-tert-butylphenyl)piperazin-1-yl)methanone], the inhibition at 10 µM worked out at 54% and the inhibition at 30 µM worked out at 98%.
